Results published in PMC8342458, “GluN2A and GluN2B NMDA receptors use distinct allosteric routes” (Nature Communications, 2021).
“And” between values parts separate entries of the source, which are not always exact repeats. Equal values may be shown once. Read-outs that look alike come from different tables or passages of the source.

What was measured:
[1] = target: T1, GluN1-K178AzF/GluN2A receptors (Rattus norvegicus, UniProt P35439+Q00959, K178F); test: TEVC recordings in Xenopus oocytes, modulator sensitivity before and after UV photocrosslinking; type: cell-based
T1 construct: For full-length multimeric membrane-embedded receptors studied in cellulo, as done in the present work; expressed in transfected cells; host or cells: Xenopus laevis oocytes, co-injected with amber suppressor tRNA (Yam) and AzF-RS
Protocol: (§1) The pcDNA3-based expression plasmids for rat GluN1-1a (named GluN1 herein), rat GluN2A, and mouse GluN2B (also known as ε2) subunits, Pfu-based site-directed mutagenesis strategy, and sequencing procedure have been described previously[68],[69]. Incorporation of the unnatural amino acids (UAAs) AzF and BzF into NMDARs was performed using the genetic code expansion methodology as previously described[52],[53],[83]. The plasmid pSVB.Yam carrying the gene encoding the amber suppressor tRNA derived from B. stearothermophilus Tyr-tRNACUA, while the aminoacyl-tRNA synthetases (aaRS) construction for AzF and BzF derived from E. coli TyrRS[84],[85].
(§2) Recombinant NMDARs were expressed in Xenopus laevis oocytes after nuclear injection of 36 nl of a mixture of cDNAs (at 10–30 ng/μl) encoding various GluN1 and GluN2 subunits (ratio 1:1). Oocytes were prepared, injected, incubated, and voltage-clamped as described previously. For UAA incorporation, oocytes were co-injected with 36 nl of a cDNA mixture encoding for of GluN1, GluN2, Yam, and aaRS as follows, unless otherwise indicated in the text: GluN1-K178amber (120 ng/μl), GluN2A (80 ng/µl) or GluN2B (120 ng/μl), Yam (10 ng/μl), AzF-RS (5 ng/μl). After injection, oocytes were incubated at 19 °C in a Barth solution containing (in mM) 88 NaCl, 1 KCl, 0.33 Ca(NO3)2, 0.41 CaCl2, 0.82 MgSO4, 2.4 NaHCO3, 10 HEPES (pH adjusted to 7.6 with NaOH) supplemented with gentamicin ([…]) and the NMDAR glutamate binding site competitive antagonist D-APV (50 μM). AzF and BzF were added to the incubation medium at final concentrations of 1 mM and 2 mM, respectively.
(§3) For all experiments, except those on pH and spermine sensitivity, the standard external solution contained (in mM): 100 NaCl, 0.3 BaCl2, and 5 HEPES (pH adjusted to 7.3 with KOH). […] For the pH and spermine sensitivity experiments, an external solution enriched in HEPES was used to insure proper pH buffering. Unless otherwise mentioned, NMDAR-mediated currents were induced by simultaneously applications of saturating concentrations of glutamate and glycine (100 μM each). Glutamate and glycine dose-response curves (DRC) were performed in the presence of 100 µM glycine and 100 µM glutamate, respectively. Recordings were performed at a holding potential of −60 mV and at room temperature. Data were collected and analyzed using Clampex 10.5 and Clampfit 10.5 (Molecular Devices), respectively, and fitted using KaleidaGraph 4.0 (Synergy software).
(§4) EC50 and nH were fitted as free parameters. […] For proton DRC, corrections for small shifts in the reference potential of bath electrodes and analysis of the data were performed as previously described. Spermine experiments were performed and analyzed as previously described. In brief, spermine sensitivity was assessed at pH 6.5 and at a holding potential of −30 mV to maximize the spermine induced potentiation. […] EC50, a and nH were set as free parameters. MK-801 is an NMDAR open channel blocker with slow reversibility and, consequently, the rate at which MK-801 inhibits NMDAR responses depends on the level of channel activity, that is, channel open probability (Po). Based on this principle, MK-801 is classically used to estimate the level of NMDAR channel activity in macroscopic whole-cell recordings[36],[47],[56],[86],[87]. Note, however, that MK- 801 inhibition kinetics can index relative, not absolute, Po. MK-801 solutions (10 nM for GluN2A-containing receptors and 50 nM for GluN2B-containing receptors) were prepared by dilution of a stock solution (50 mM) into the agonist containing solutions. MK-801 time constants of inhibition (τon) were obtained by fitting currents with a single-exponential component to a time window corresponding to 10–90% of maximum inhibition. On-rate (kon) constants were then calculated assuming a pseudo first-order reaction scheme: kon = 1 / ([MK-801]*τon).

[2] = target: T2, GluN1-K178AzF/GluN2B receptors (UniProt P35439+Q01097, K178F); test: as above; type: cell-based, rat (GluN1), mouse (GluN2B); conditions: for Isper/Io 20 μM: 20 μM spermine; for Isper/Io 20 μM / Isper/Io 200 μM / Isper/Io 1000 μM / spermine maximal potentiation / spermine nH / EC50: pH 6.5, -30 mV; for Isper/Io 200 μM: 200 μM spermine; for Isper/Io 1000 μM: 1000 μM spermine; for EC50: read-out: spermine EC50
T2 construct: For full-length multimeric membrane-embedded receptors studied in cellulo, as done in the present work; expressed in transfected cells; host or cells: Xenopus laevis oocytes, co-injected with amber suppressor tRNA (Yam) and AzF-RS
Protocol: as §1, §2, §3, §4

[3] = target: T3, wild-type (wt) GluN1/GluN2B receptors (UniProt P35439+Q01097); test: TEVC recordings in Xenopus oocytes, allosteric modulator sensitivity; type: cell-based, rat (GluN1), mouse (GluN2B)
T3 construct: For full-length multimeric membrane-embedded receptors studied in cellulo, as done in the present work; expressed in transfected cells; host or cells: Xenopus laevis oocytes (nuclear cDNA injection, pcDNA3 plasmids)
Protocol: as §1, §2, §3, §4

[4] = target: T4, GluN1/GluN2B-N218C receptors (UniProt P35439+Q01097, N218C); test: TEVC recordings in Xenopus oocytes, zinc and ifenprodil inhibition dose-response; type: cell-based, rat (GluN1), mouse (GluN2B)
T4 construct: For full-length multimeric membrane-embedded receptors studied in cellulo, as done in the present work; expressed in transfected cells; host or cells: Xenopus laevis oocytes
Protocol: as §1, §2, §3, §4

[5] = target: T5, GluN1-N512C-L777C/GluN2B-E517C-L781C receptors (UniProt P35439+Q01097, E517C/L777C/L781C/N521C); test: as above; type: cell-based, rat (GluN1), mouse (GluN2B)
T5 construct: For full-length multimeric membrane-embedded receptors studied in cellulo, as done in the present work; expressed in transfected cells; host or cells: Xenopus laevis oocytes
Protocol: as §1, §2, §3, §4

[6] = pH 8.3 (second column so headed), +UV
[7] = pH 6.5, holding potential -30 mV

T1 sequence (Q00959 23-1464, other chains not shown): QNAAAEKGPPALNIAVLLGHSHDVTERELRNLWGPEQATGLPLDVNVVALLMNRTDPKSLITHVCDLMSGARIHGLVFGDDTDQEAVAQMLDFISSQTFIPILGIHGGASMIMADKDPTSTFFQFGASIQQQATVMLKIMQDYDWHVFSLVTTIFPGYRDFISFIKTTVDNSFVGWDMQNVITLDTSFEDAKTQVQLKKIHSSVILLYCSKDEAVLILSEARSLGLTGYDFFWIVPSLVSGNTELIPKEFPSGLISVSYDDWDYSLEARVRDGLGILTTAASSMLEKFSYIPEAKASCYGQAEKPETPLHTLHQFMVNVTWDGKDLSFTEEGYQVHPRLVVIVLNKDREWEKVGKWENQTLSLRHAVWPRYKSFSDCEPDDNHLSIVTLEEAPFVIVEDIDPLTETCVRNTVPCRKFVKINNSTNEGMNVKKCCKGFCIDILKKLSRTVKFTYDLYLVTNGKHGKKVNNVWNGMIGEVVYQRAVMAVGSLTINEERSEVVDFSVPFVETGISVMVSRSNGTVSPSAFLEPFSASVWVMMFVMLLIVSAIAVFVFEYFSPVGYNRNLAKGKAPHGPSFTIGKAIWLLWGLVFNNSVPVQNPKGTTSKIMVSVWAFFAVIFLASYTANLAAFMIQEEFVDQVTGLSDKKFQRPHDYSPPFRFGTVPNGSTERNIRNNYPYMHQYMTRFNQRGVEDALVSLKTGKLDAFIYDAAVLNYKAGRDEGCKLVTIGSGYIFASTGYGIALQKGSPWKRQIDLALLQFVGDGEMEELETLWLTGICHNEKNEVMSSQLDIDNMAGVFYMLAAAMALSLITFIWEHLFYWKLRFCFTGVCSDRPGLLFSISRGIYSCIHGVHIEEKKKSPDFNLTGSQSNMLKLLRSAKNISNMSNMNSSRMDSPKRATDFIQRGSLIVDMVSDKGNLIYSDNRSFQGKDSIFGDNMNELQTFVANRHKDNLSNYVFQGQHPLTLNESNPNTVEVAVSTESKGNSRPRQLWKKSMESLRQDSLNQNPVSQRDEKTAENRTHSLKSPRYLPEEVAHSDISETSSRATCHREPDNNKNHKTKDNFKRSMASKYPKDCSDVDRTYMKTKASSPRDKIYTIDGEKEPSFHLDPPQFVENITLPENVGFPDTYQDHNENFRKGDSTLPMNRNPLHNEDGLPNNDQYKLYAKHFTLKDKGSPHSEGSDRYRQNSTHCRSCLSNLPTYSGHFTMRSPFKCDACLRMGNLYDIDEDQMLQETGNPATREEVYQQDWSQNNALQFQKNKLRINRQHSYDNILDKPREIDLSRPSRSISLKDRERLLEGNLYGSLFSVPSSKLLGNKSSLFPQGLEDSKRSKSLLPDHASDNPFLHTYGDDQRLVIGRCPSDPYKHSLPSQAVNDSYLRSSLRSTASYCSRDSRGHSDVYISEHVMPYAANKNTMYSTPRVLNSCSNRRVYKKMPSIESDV
T3 sequence (Q01097 27-1482, other chains not shown): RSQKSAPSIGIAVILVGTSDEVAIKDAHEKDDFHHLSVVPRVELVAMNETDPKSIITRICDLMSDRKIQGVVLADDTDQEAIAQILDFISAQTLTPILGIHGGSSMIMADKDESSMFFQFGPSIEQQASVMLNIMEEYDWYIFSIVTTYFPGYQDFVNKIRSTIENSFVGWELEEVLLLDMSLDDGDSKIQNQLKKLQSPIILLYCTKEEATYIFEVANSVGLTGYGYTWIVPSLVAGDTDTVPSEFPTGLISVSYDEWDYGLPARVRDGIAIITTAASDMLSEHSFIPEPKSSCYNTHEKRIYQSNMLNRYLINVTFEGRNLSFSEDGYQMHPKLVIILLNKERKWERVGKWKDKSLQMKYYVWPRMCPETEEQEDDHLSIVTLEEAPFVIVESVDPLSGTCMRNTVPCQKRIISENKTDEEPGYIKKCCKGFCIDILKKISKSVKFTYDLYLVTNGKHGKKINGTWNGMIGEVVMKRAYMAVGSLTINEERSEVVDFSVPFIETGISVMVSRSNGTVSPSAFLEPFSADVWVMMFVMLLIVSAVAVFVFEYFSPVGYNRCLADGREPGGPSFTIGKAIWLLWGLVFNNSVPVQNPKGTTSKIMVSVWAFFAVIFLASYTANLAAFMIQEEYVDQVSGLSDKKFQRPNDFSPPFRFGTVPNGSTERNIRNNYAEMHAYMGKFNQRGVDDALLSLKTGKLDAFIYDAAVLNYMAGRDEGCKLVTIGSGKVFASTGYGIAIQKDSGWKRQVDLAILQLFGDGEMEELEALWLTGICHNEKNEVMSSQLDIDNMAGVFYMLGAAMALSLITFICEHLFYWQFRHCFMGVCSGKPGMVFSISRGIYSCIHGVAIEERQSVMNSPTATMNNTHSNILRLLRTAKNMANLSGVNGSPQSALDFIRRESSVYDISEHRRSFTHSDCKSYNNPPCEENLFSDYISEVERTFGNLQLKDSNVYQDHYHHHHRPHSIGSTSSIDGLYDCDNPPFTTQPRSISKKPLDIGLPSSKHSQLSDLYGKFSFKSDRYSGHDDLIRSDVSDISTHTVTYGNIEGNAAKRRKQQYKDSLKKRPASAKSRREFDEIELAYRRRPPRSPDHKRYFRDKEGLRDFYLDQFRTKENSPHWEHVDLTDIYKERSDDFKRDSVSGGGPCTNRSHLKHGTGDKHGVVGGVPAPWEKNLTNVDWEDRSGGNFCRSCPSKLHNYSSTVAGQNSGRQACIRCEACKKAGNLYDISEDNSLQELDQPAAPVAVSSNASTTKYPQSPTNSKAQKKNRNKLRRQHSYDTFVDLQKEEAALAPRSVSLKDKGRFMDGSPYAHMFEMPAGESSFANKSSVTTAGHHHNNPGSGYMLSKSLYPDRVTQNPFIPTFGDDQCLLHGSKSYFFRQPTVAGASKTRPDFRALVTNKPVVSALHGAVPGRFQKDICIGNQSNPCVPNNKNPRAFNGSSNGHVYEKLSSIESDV
T2 sequence (Q01097 27-1482, other chains not shown): as above

## [1H+] [proton]
[1]; after UV
  pHIC50 (proton sensitivity): 7.01 ± 0.01
  proton Hill slope (nH): 1.93 ± 0.07
[1]; before UV
  pHIC50 (proton sensitivity): 7.00 ± 0.02
  proton Hill slope (nH): 1.91 ± 0.11
[1]; pH 6.3, +UV
  proton, relative current at pH 6.3: 0.04 ± 0.01
[1]; pH 6.3, -UV
  proton, relative current at pH 6.3: 0.04 ± 0.01
[1]; pH 7.3, +UV
  proton, relative current at pH 7.3: 0.78 ± 0.03
[1]; pH 7.3, -UV
  proton, relative current at pH 7.3: 0.79 ± 0.03
[1]; [6]
  proton, relative current at pH 8.3: 1.00 ± 0.02
[1]; pH 8.3, +UV
  proton, relative current at pH 8.3: 0.99 ± 0.02
[1]; pH 8.3, -UV
  proton, relative current at pH 8.3: 0.99 ± 0.02
[1]; pH 9.3, -UV
  proton, relative current at pH 9.3: 1.01 ± 0.04
[2]; after UV
  pHIC50 (proton sensitivity): 6.90 ± 0.02
  proton Hill slope (nH): 0.99 ± 0.03
[2]; before UV
  pHIC50 (proton sensitivity): 7.60 ± 0.01
  proton Hill slope (nH): 1.37 ± 0.05
[2]; pH 6.3, +UV
  proton, relative current at pH 6.3: 0.21 ± 0.09
[2]; pH 6.3, -UV
  proton, relative current at pH 6.3: 0.03 ± 0.02
[2]; pH 7.3, +UV
  proton, relative current at pH 7.3: 0.71 ± 0.02
[2]; pH 7.3, -UV
  proton, relative current at pH 7.3: 0.28 ± 0.04
[2]; [6]
  proton, relative current at pH 8.3: 0.98 ± 0.01
[2]; pH 8.3 (second column so headed), -UV
  proton, relative current at pH 8.3: 1.00 ± 0.03
[2]; pH 8.3, +UV
  proton, relative current at pH 8.3: 0.97 ± 0.03
[2]; pH 8.3, -UV
  proton, relative current at pH 8.3: 0.90 ± 0.04
[2]; post-UV vs pre-UV
  rightward shift in the pH dose-response curve: > 0.5 pH-unit

## CC(C(O)c1ccc(O)cc1)N1CCC(Cc2ccccc2)CC1 (centres unmarked) [ifenprodil, Ifenprodil]
[3]
  ifenprodil Hill slope (nH): 1.22 ± 0.04 and 1.14 ± 0.11 and 1.11 ± 0.07
  ifenprodil maximal inhibition: 0.95 ± 0.02 and 0.93 ± 0.01
[4]
  ifenprodil Hill slope (nH): 1.08 ± 0.06
  ifenprodil maximal inhibition: 0.99 ± 0.02
[5]
  ifenprodil Hill slope (nH): 0.83 ± 0.13
  ifenprodil maximal inhibition: 0.76 ± 0.03
[2]; after UV
  ifenprodil Hill slope (nH): 1.25 ± 0.11
  ifenprodil maximal inhibition: 0.54 ± 0.06
[2]; before UV
  ifenprodil Hill slope (nH): 1.25 ± 0.39
  ifenprodil maximal inhibition: 0.98 ± 0.09

## NCCCNCCCCNCCCN [spermine]
[3]; 20 μM spermine, pH 6.5, -30 mV
  Isper/Io 20 μM: 1.74 ± 0.06
[3]; 200 μM spermine, pH 6.5, -30 mV
  Isper/Io 200 μM: 6.89 ± 0.52
[3]; 1000 μM spermine, pH 6.5, -30 mV
  Isper/Io 1000 μM: 12.55 ± 0.41
[3]; [7]
  spermine maximal potentiation: 11.2 ± 3.3
  spermine nH: 1.26 ± 0.09
[3]; pH 6.5, holding potential -30 mV, read-out: spermine EC50
  EC50: 174 ± 64.5 µM
[2]; +UV
  Isper/Io 20 μM: 1.24 ± 0.03
  Isper/Io 200 μM: 2.12 ± 0.26
  Isper/Io 1000 μM: 2.49 ± 0.42
[2]; -UV
  Isper/Io 20 μM: 2.11 ± 0.15
  Isper/Io 200 μM: 13.65 ± 1.01
  Isper/Io 1000 μM: 23.05 ± 1.52
[2]; after UV
  spermine maximal potentiation: 1.6 ± 0.5
  spermine nH: 1.14 ± 0.16
  EC50: 93 ± 22.8 µM
[2]; before UV
  spermine maximal potentiation: 26.1 ± 2.5
  spermine nH: 1.29 ± 0.22
  EC50: 215 ± 63.2 µM
